Like-named read-outs stand apart in the source and are kept apart here.

Here are results for 6 molecules from article PMC3669129, “Fast, Non-Competitive and Reversible Inhibition of NMDA-Activated Currents by 2-BFI Confers Neuroprotection” (PLoS ONE, 2013).

One data set relates to rat cortical neurons. In words: Effect of 2-BFI alone on neuronal excitability (current and membrane potential). It is filed as cell-based. Particulars: 3–1000 µM 2-BFI. As for the experimental part: (§1) Primary cortical neurons were prepared from embryonic E18 Sprague-Dawley rats and cultured in neurobasal medium supplemented with B27 [24]. Briefly, cortices were explanted and cleaned free of meninges. The cortices were placed in D-Hanks’ solution and digested at 37°C with 0.05% trypsin-EDTA for 6 min. They were subsequently resuspended in DMEM medium supplemented with 20% fetal calf serum and 1% penicillin/streptomycin to stop digestion and were further dissociated into individual cells by trituration and plated on poly-D-lysine-coated glass coverslips in culture dishes at a density of 7×10^5 cells/ml. After the neurons had attached to the coverslips for 2 hrs, the medium was changed to neurobasal medium containing 2% B27 supplement. Neurons were incubated at 37°C in a humidified atmosphere of 5% CO2 for 7–8 days before electrophysiological experiments.
(§2) Whole-cell patch-clamp recordings were carried out at room temperature (22–25°C) using an Axopatch 700A patch-clamp amplifier (Axon Instruments, Inverurie, Scotland). Data acquisition was achieved using a DigiData 1322A with pClamp 9.0 software. The acquisition rate was 10 kHz and signals were filtered at 5 kHz. Patch electrodes were pulled with a Flaming/Brown micropipette puller (Sutter Instruments, Novato, CA) and fire-polished. […]

The subject of the next data set is rodents. More on the design: method as in PMID 19508825, PMID 20840843, PMID 22771326, PMID 19083996, PMID 21303658. Particulars: previous animal studies; cited from earlier work.
The subject of data set [1] is spectrin breakdown product (SBP). It is filed as cell-based, rat. The conditions noted are these: 2 h treatment with NMDA; Western blot. (In general: Immunoblotting shows a protein as a band on a membrane.)
The next data set relates to NMDA receptors. In words: Whole-cell patch-clamp recording of NMDA-activated current in cultured cortical neurons. It is filed as cell-based, rat. Particulars: for EC50: n = 6–8. As for the experimental part: as §1
Whole-cell patch-clamp recordings were carried out at room temperature (22–25°C) using an Axopatch 700A patch-clamp amplifier (Axon Instruments, Inverurie, Scotland). Data acquisition was achieved using a DigiData 1322A with pClamp 9.0 software. The acquisition rate was 10 kHz and signals were filtered at 5 kHz. Patch electrodes were pulled with a Flaming/Brown micropipette puller (Sutter Instruments, Novato, CA) and fire-polished. […] For the voltage-clamp recordings, the capacity transients were cancelled using the resistance capacitance circuit within the amplifier. After the formation of whole-cell configuration, access resistances were generally <15 MΩ. Series resistance compensation was set to 70%–90%. The liquid junction potential was approximately 2 mV and was auto-adjusted each time by pipette offset. To record NMDA/AMPA-activated currents, the external solution [(containing (mM): NaCl 150, KCl 5, CaCl2 0.2, glucose 10 and HEPES 10, pH adjusted to 7.4 with NaOH)] and the pipette solution [containing (mM): KCl 140, MgCl2 2.5, HEPES 10, EGTA 11, ATP 5, pH adjusted to 7.3 with KOH] were used. For voltage-clamp recordings, the membrane potential was held at −70 mV, unless noted otherwise. Drug solutions were prepared in extracellular solutions and applied to neurons by pressure using the 8-Channel Focal Perfusion System (ALA Scientific Instruments, Farmingdale, NY). Neurons were bathed constantly in extracellular solution between drug applications. Drug solution exchange was accomplished by electronic control.
Patch-clamp data was processed using Clampfit 9.0 (Axon Instruments) and then analyzed in Origin 7.5 (OriginLab, Northampton, MA). The dose-response curve was fitted to the logistic equation: y = (A1–A2)/[1+ (x/x0 )^p]+A2, where y is the response, A1 and A2 are the maximum and minimum response, respectively, x0 is the concentration corresponding to half-maximal effect, x is the drug concentration, and p is the Hill coefficient.
The onset and offset rates of 2-BFI were measured from the recordings by the binding kinetic protocol, where a single concentration of 2-BFI was applied in the constant presence of agonists. Tauon and Tauoff were obtained by a single exponential function fit: I = A×[1-exp(-t/τ)]+I 0, where I is the current, I 0 is the steady-state amplitude of the current, A is the difference between the peak and steady state current amplitudes, t is time, and τ is the time constant.
(Patch clamp records ionic current or voltage across a cell membrane.)

Data set [2] relates to NMDA receptor-mediated [Ca2+]i influx. In words: Ratiometric Fura-2 measurement of NMDA-evoked [Ca2+]i in cortical neurons. It is filed as cell-based, mouse. The conditions noted are these: for reversibility of block of NMDA receptor-mediated [Ca2+]i influx on removal of inhibitor: MK801 10 µM, 2-BFI 200 µM, memantine 10 µM, NMDA 100 µM, wash with PSS, n = 20 cells per treatment. On the procedure: Ratiometric measurement of [Ca^2+]i was performed using Fura-2 AM [25]. Briefly, mouse cortical neurons at 7 days-in-vitro on glass coverslips were loaded with 5 µM Fura-2-AM (Molecular Probes, Eugene, CA) plus 0.02% pluronic (Life Technologies, INC, Burlington, ON, Canada) for 30 min at 37°C. After rinsing with PSS Mg^2+ free buffer containing 2 mM HEPES (pH 7.2), 140 mM NaCl, 5 mM KCl, 2.3 mM CaCl2, and 10 mM glucose, and stabilized in the same buffer for 5 min, Fura-2 intensities were measured using a Northern Eclipse Digital Ratio Image System (EMPIX, Mississauga, ON, Canada) with an Axiovert 200 camera and light source (Zeiss, Thornwood, NY). Fura-2 fluorescence was measured at 510 nm emission with 340/380 nm dual excitation selected by a DG-5 system (Sutter Instrument Company, Novato, CA). [Ca^2+]i concentration was represented by the ratio of florescence intensity between the two excitation wavelengths of R340/380 of Fura-2 after correction for background. R340/380 for 10 cells in one field of each coverslip was averaged. The basal level of [Ca^2+]i was recorded for 20 sec, followed by the application of inhibitors. […] [Ca^2+]i was recorded for 60–100 sec. After washing with PSS buffer for 300 sec, PSS buffer containing 45 mM KCl was added to neurons to record changes in [Ca^2+]i for 60 sec to show viability of neurons. All measurements were repeated for at least 3 times. The data was analyzed using Microsoft Excel and presented as the mean of three experiments.

In another data set the test system is cortical neurons. Briefly: Neuroprotection against NMDA excitotoxicity (nuclear staining, Alamar Blue viability). The data set is classed as cell-based, rat. The conditions noted are these: for number of condensed nuclei (NMDA-induced neuronal death): nuclear staining of cortical neurons treated with NMDA. As for the experimental part: as §1
After 7 days-in-vitro, cortical neurons were treated with the specific inhibitor for 15 min prior to the addition of 100 µM glutamate or 200 µM NMDA at 37°C. The plates were then incubated for up to 24 h at 37°C in the presence or absence of inhibitors. Untreated cells were also included as controls. At the end of the treatment period, cells were either fixed for staining or subjected to a neuronal viability assay using Alamar Blue (Invitrogen). Stained cells were examined under a fluorescent microscope (Carl Zeiss, AX10 vert 200M), and digital images were taken and analyzed using Image J software (http://rsbweb.nih.gov/ij/). The viability of cortical neurons treated with NMDA, and with or without inhibitors as mentioned, was assayed using an Alamar Blue assay (Invitrogen). Briefly, a 1∶10 dilution of Alamar blue was added to cells for 1 h at 37°C. One third of the medium was removed and read in a 96-well plate using a plate reader with λEx = 530 nm and λEm = 590 nm. At minimum, a triplicate reading was obtained per experiment with three independent repeats.

For data set [3], the system named is transient cerebral ischemia. More on the design: method as in PMID 19508825, PMID 20840843, PMID 22771326. The conditions noted are these: rodent model of stroke; cited from earlier work.
On the set-up of data set [4]: method as in PMID 9228188. The conditions noted are these: cited from earlier work.
Data set [5] addresses [3H]2-BFI binding sites (I2-imidazoline receptors). More on the design: method as in PMID 9228188. The conditions noted are these: cerebral cortex; read-out: Ki for a single class of [3H]2-BFI binding sites; cited from earlier work.
The next data set has as its system AMPA receptor. In words: Whole-cell patch-clamp recording of AMPA-activated current in cultured cortical neurons. It is filed as cell-based, rat. The conditions noted are these: 200 µM 2-BFI; 100 µM AMPA; paired t-test P>0.05, n = 8. On the procedure: as §1, §2
The next data set concerns NMDAR. The conditions noted are these: read-out: IC50 of memantine; at −70 mV; ref not given; cited from earlier work.

Consider `c1ccc2oc(C3=NCCN3)cc2c1` [2-BFI, 2-(2-benzofu-ranyl)-2-imidazoline], for which the “effect of 2-BFI alone on membrane potential” value in the data set on rat cortical neurons is “nor affected the membrane potential”. Also, the “current induced by 2-BFI alone” value with rat cortical neurons (−50 mV) is listed as “neither induced any detectable current”. The “side effects of administration to rodents” value in the data set on rodents was “no visible side effects”. Further, the “level of spectrin breakdown product (SBP)” value (“level” below) in [1] is given as “effectively reduced”. The “average reversal potential of current activated by NMDA and glycine” value with NMDA receptors (30 µM NMDA and 1 µM glycine in the presence of 200 µM 2-BFI, n = 6) worked out at 2.8±3.2 mV. Also, the 50% inhibitory concentration (IC50) (commonly the point on the concentration scale where inhibition reaches its midpoint) in the data set on NMDA receptors (30 µM NMDA plus 1 µM glycine, 2-BFI 10–2000 µM pre-applied 30 s, −70 mV, n = 6, read-out: IC50 for inhibition of NMDA-activated current) was found to be 124 ± 13.1 µM. The “slope factor of the concentration-response curve for inhibition of NMDA-activated current” value with NMDA receptors (30 µM NMDA plus 1 µM glycine, −70 mV, n = 6) came to 1.2±0.1. Besides, in the data set with NMDA receptors (200 µM 2-BFI), the “effect on Emax of NMDA and glycine” value was “greatly reduced”. Moreover, the “inhibition of NMDA-induced currents” value in the data set on NMDA receptors (200 µM 2-BFI, 30 µM NMDA plus 1 µM glycine, paired t-test P<0.001, n = 8) is reported as “marked inhibition”. In the data set on NMDA receptors (200 µM 2-BFI, membrane potentials from −60 mV to +60 mV, ANOVA P>0.05, n = 6), the “voltage dependence of average inhibition of NMDA-activated current” value is “not significantly different”. In addition, the “mode of NMDAR antagonism” value in the data set on NMDA receptors (EC50s and slope factors of NMDA and glycine unchanged by 200 µM 2-BFI) is reported as “non-competitive antagonist”. Moreover, the “reversibility of inhibition of NMDA-activated current” value with NMDA receptors (after a few seconds of washing) is on record as “fully reversible”. Also, in the data set on NMDA receptors (from fitted kinetic values, read-out: Kd = Koff/Kon), the Kd was found to be 305.94 ± 0.3 µM. In addition, the Koff in the data set on NMDA receptors (kinetic protocol, constant presence of 30 µM NMDA plus 1 µM glycine, single exponential fit) was 0.67 ± 0.02 s⁻¹. In addition, the “effect on NMDA-evoked [Ca2+]i influx” value in data set [2] (10–1000 µM 2-BFI, 100 µM NMDA, n = 20 cells per dose point) is on record as “significantly suppressed”. The “reversibility of block of NMDA receptor-mediated [Ca2+]i influx on removal of inhibitor” value (“reversibility of block … of inhibitor” for short) in [2] is given as “able to respond to NMDA (100 µM) almost immediately”. Besides, the “protection against NMDA toxicity, Alamar blue assay” value with cortical neurons (dose- and time-course, paired t-test P<0.01, n = 8) is reported as “Dose-dependent neuroprotection”. For the same molecule, the “number of condensed nuclei (NMDA-induced neuronal death)” value (from here on “number of condensed nuclei”) in the data set with cortical neurons is recorded as “reduced”. Further, the “neuroprotection against transient cerebral ischemia” value in data set [3] was “potently and dose-dependently neuroprotective”. The “crossing of the blood brain barrier” value in data set [4] is reported as “able to cross the blood brain barrier”. Further, the inhibition constant Ki – broadly, the equilibrium dissociation constant of an inhibitor or competing ligand from its target – in data set [5] was 0.0098 µM. The “inhibition of AMPA-induced currents” value in the data set on AMPA receptor is “did not inhibit”.
Regarding `c1ccc2c(c1)OCC(C1=NCCN1)O2` (stereo not shown) [Idazoxan], in data set [3], the “neuroprotection against transient cerebral ischemia” value is “potently and dose-dependently neuroprotective”. Moreover, the “crossing of the blood brain barrier” value in [4] is listed as “readily cross the blood brain barrier”.
For the molecule `C[C@]12N[C@H](Cc3ccccc31)c1ccccc12` [MK801], the “level” value in [1] was “effectively reduced”. For the same molecule, in [2], the “reversibility of block … of inhibitor” value is on record as “non-reversibly blocked”. Also, the “number of condensed nuclei” value in the data set with cortical neurons is “reduced”.
On to `CN[C@H](CC(=O)O)C(=O)O` [NMDA, N-methyl-D-aspartic acid], for which the “slope factor of NMDA concentration-response curve” value was 1.25±0.1 in the data set on NMDA receptors (in the absence of 2-BFI, 1 µM glycine) and 1.25±0.6 in the data set on NMDA receptors (in the presence of 200 µM 2-BFI, 1 µM glycine). Moreover, the EC50 (usually the concentration needed to bring the measured effect to its halfway point) in the data set with NMDA receptors (in the absence of 2-BFI, 1 µM glycine, read-out: EC50 of NMDA for current activation) stood at 33.7 ± 4.3 µM.
On to `NCC(=O)O` [glycine], for which the “slope factor of glycine concentration-response curve” value was determined as 0.39±0.2 with NMDA receptors (in the absence of 2-BFI, 30 µM NMDA) and 0.58±0.6 in the data set on NMDA receptors (in the presence of 200 µM 2-BFI, 30 µM NMDA). Besides, in the data set with NMDA receptors (in the absence of 2-BFI, 30 µM NMDA, read-out: EC50 of glycine for current activation), the EC50 was 1.52 ± 1.6 µM.
Consider `CC12CC3CC(C)(C1)CC(N)(C3)C2` [memantine], for which, in the data set with NMDAR, the IC50 is 1.2 µM. Moreover, in data set [1], the “level” value is reported as “effectively reduced”. Moreover, the “reversibility of block … of inhibitor” value in data set [2] is reported as “able to respond to NMDA (100 µM) almost immediately”. For the same molecule, the “number of condensed nuclei” value in the data set on cortical neurons was “reduced”.
